Molecular target: T1, hTLR9 (Homo sapiens, UniProt Q9NR96)
T1 sequence (Q9NR96 26-1032): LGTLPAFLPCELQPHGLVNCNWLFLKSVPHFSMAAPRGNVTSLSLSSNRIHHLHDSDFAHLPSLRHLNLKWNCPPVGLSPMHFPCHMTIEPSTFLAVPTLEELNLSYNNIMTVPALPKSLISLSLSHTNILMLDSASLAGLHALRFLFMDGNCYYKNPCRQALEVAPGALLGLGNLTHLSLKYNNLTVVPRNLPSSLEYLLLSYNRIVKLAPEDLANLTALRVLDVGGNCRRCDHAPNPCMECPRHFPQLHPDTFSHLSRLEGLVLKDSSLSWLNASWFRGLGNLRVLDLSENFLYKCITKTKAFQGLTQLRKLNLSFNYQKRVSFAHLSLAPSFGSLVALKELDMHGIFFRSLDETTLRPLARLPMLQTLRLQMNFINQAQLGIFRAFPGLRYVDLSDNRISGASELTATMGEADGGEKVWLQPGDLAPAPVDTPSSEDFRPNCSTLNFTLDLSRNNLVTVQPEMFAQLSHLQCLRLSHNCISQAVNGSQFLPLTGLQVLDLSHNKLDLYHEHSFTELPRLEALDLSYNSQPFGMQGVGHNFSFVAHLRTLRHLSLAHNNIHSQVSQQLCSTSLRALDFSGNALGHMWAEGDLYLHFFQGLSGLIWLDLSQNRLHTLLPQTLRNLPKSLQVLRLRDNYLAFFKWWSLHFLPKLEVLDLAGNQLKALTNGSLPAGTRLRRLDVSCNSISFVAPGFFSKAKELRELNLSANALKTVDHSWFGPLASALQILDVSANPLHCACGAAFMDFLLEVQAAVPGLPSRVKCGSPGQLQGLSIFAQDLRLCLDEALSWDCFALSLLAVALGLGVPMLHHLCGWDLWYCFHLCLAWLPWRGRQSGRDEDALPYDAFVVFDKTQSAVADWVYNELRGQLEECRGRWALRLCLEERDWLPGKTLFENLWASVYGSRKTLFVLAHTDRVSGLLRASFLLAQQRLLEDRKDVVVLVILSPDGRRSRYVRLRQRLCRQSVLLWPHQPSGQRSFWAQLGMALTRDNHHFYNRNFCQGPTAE
Assay: HEK293-Blue-hTLR-9 cells assay (SEAP reporter, ODN2006 stimulation)
Format: cell-based
Set-up: host or cells: HEK293 (HEK-Blue hTLR9)
Conditions: HEK293-Blue-hTLR9 cells, ODN2006, 20 hrs; read-out: HEK/hTLR9 IC50
Method in brief: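 HEK293-Blue-hTLR9 cells with NF-κB/AP-1-driven SEAP reporter treated with serially diluted compound (1% DMSO final) plus ODN2006 for 20 h at 37 °C. Supernatant SEAP measured with QUANTI-Blue, 2 h at 37 °C, absorbance 620–655 nm; antagonism seen as reduced reporter signal.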

Question: How did the IC50 turn out when `C[C@@H]1CN(c2ccc(C#N)c3ncccc23)C[C@H](CN2CCN(c3ccnc(N4CCN(C)CC4)n3)CC2)O1` [Example 22, 5-((2R,6S)-2-methyl-6-((4-(2-(4-methylpiperazin-1-yl)pyrimidin-4-yl)piperazin-1-yl)methyl)morpholino)quinoline-8-carbonitrile] was run?
Answer: 45 nM

Question: `C[C@@H]1CN(c2ccc(C#N)c3ncccc23)C[C@H](CN2CCN(c3ccnc(N4CC(N)C4)n3)CC2)O1` [Example 23, 5-[(2S,6R)-2-[[4-[2-(3-aminoazetidin-1-yl)pyrimidin-4-yl]piperazin-1-yl]methyl]-6-methyl-morpholin-4-yl]quinoline-8-carbonitrile] was tested. Which IC50 did it give?
Answer: 232 nM

Question: `C[C@@H]1CN(c2ccc(C#N)c3ncccc23)C[C@H](CN2CCN(c3ccnc(N[C@H]4CNC[C@H]4F)n3)CC2)O1` [Example 24, 5-[(2S,6R)-2-[[4-[2-[[(3S,4R)-4-fluoropyrrolidin-3-yl]amino]pyrimidin-4-yl]piperazin-1-yl]methyl]-6-methyl-morpholin-4-yl]quinoline-8-carbonitrile] was tested. Which IC50 did it give?
Answer: 32 nM

Question: Which IC50 does the source give for `C[C@@H]1CN(c2ccc(C#N)c3ncccc23)C[C@H](CN2CCN(c3ccnc(N4CCNCC(O)C4)n3)CC2)O1` (stereo partly drawn) [Example 25, 5-[(2S,6R)-2-[[4-[2-(6-hydroxy-1,4-diazepan-1-yl)pyrimidin-4-yl]piperazin-1-yl]methyl]-6-methyl-morpholin-4-yl]quinoline-8-carbonitrile] here?
Answer: 33 nM

Question: Which IC50 does the source give for `CO[C@H]1CN(c2nccc(N3CCN(C[C@H]4CN(c5ccc(C#N)c6ncccc56)C[C@@H](C)O4)CC3)n2)C[C@@H]1N` [Example 26, 5-[(2S,6R)-2-[[4-[2-trans-(3-amino-4-methoxy-pyrrolidin-1-yl)pyrimidin-4-yl]piperazin-1-yl]methyl]-6-methyl-morpholin-4-yl]quinoline-8-carbonitrile] here?
Answer: 32 nM

Question: Which IC50 does the source give for `C[C@@H]1CN(c2ccc(C#N)c3ncccc23)C[C@H](CN2CCN(c3ccnc(N4CCC(N)CC4)n3)CC2)O1` [Example 27, 5-[(2S,6R)-2-[[4-[2-(4-amino-1-piperidyl)pyrimidin-4-yl]piperazin-1-yl]methyl]-6-methyl-morpholin-4-yl]quinoline-8-carbonitrile] here?
Answer: 43 nM

Question: `C[C@@H]1CN(c2ccc(C#N)c3ncccc23)C[C@H](CN2CCN(c3ccnc(NC4CNC4)n3)CC2)O1` [Example 28, 5-[(2S,6R)-2-[[4-[2-(azetidin-3-ylamino)pyrimidin-4-yl]piperazin-1-yl]methyl]-6-methyl-morpholin-4-yl]quinoline-8-carbonitrile] was tested. Which IC50 did it give?
Answer: 65 nM

Question: Which IC50 does the source give for `C[C@@H]1CN(c2ccc(C#N)c3ncccc23)C[C@H](CN2CCN(c3ccnc(N4CCN[C@@H](CO)C4)n3)CC2)O1` [Example 29, 5-[(2S,6R)-2-[[4-[2-[(3R)-3-(hydroxymethyl)piperazin-1-yl]pyrimidin-4-yl]piperazin-1-yl]methyl]-6-methyl-morpholin-4-yl]quinoline-8-carbonitrile] here?
Answer: 51 nM

Question: For `C[C@@H]1CN(c2ccc(C#N)c3ncccc23)C[C@H](CN2CCN(c3ccnc(OCCN(C)C)n3)CC2)O1` [Example 30, 5-[(2S,6R)-2-[[4-[2-[2-(dimethylamino)ethoxy]pyrimidin-4-yl]piperazin-1-yl]methyl]-6-methyl-morpholin-4-yl]quinoline-8-carbonitrile], which IC50 is on record?
Answer: 250 nM

Question: How did the IC50 turn out when `C[C@@H]1CN(c2ccc(C#N)c3ncccc23)C[C@H](CN2CCN(c3ccnc(N4CCN(C(=O)[C@@H]5CCCN5)CC4)n3)CC2)O1` [Example 31, 5-[(2R,6S)-2-methyl-6-[[4-[2-[4-[(2S)-pyrrolidine-2-carbonyl]piperazin-1-yl]pyrimidin-4-yl]piperazin-1-yl]methyl]morpholin-4-yl]quinoline-8-carbonitrile] was run?
Answer: 46 nM

Question: For `C[C@@H]1CN(c2ccc(C#N)c3ncccc23)C[C@H](CN2CCN(c3ccnc(N4CCN(C(=O)CN(C)C)CC4)n3)CC2)O1` [Example 32, 5-[(2S,6R)-2-[[4-[2-[4-[2-(dimethylamino)acetyl]piperazin-1-yl]pyrimidin-4-yl]piperazin-1-yl]methyl]-6-methyl-morpholin-4-yl]quinoline-8-carbonitrile], which IC50 is on record?
Answer: 73 nM

Question: Which IC50 does the source give for `C[C@@H]1CN(c2ccc(C#N)c3ncccc23)C[C@H](CN2CCN(c3cccc(N4CCN(C)CC4)n3)CC2)O1` [Example 33, 5-[(2R,6S)-2-methyl-6-[[4-[6-(4-methylpiperazin-1-yl)-2-pyridyl]piperazin-1-yl]methyl]morpholin-4-yl]quinoline-8-carbonitrile] here?
Answer: 116 nM

Question: For `C[C@@H]1CN(c2ccc(C#N)c3ncccc23)C[C@H](CN2CCN(c3ccnc(N4CCN(C(=O)C5CCN5)CC4)n3)CC2)O1` (stereo partly drawn) [Example 34, 5-[(2S,6R)-2-[[4-[2-[4-(azetidine-2-carbonyl)piperazin-1-yl]pyrimidin-4-yl]piperazin-1-yl]methyl]-6-methyl-morpholin-4-yl]quinoline-8-carbonitrile], which IC50 is on record?
Answer: 71 nM

Question: How did the IC50 turn out when `C[C@@H]1CN(c2ccc(C#N)c3ncccc23)C[C@H](CN2CCN(c3cccc(N[C@H]4CNC[C@@H]4F)n3)CC2)O1` [Example 35, 5-[(2S,6R)-2-[[4-[6-[[(3S,4S)-4-fluoropyrrolidin-3-yl]amino]-2-pyridyl]piperazin-1-yl]methyl]-6-methyl-morpholin-4-yl]quinoline-8-carbonitrile] was run?
Answer: 147 nM

Question: `C[C@@H]1CN(c2ccc(C#N)c3ncccc23)C[C@H](CN2CCN(c3cccc(N4CCC(N)CC4)n3)CC2)O1` [Example 36, 5-[(2S,6R)-2-[[4-[6-(4-amino-1-piperidyl)-2-pyridyl]piperazin-1-yl]methyl]-6-methyl-morpholin-4-yl]quinoline-8-carbonitrile] was tested. Which IC50 did it give?
Answer: 118 nM

Question: For `C[C@@H]1CN(c2ccc(C#N)c3ncccc23)C[C@H](CN2CCN(c3cccc(N[C@H]4CNC[C@H]4F)n3)CC2)O1` [Example 37, 5-[(2S,6R)-2-[[4-[6-[[(3S,4R)-4-fluoropyrrolidin-3-yl]amino]-2-pyridyl]piperazin-1-yl]methyl]-6-methyl-morpholin-4-yl]quinoline-8-carbonitrile], which IC50 is on record?
Answer: 234 nM

Question: Which IC50 does the source give for `C[C@@H]1CN(c2ccc(C#N)c3ncccc23)C[C@H](CN2CCN(c3cccc(NC4CNC4)n3)CC2)O1` [Example 38] here?
Answer: 97 nM

Question: `C[C@@H]1CN(c2ccc(C#N)c3ncccc23)C[C@H](CN2CCN(c3cccc(N4CC(N)C(F)C4)n3)CC2)O1` (stereo partly drawn) [Example 40, 5-[(2S,6R)-2-[[4-[6-(3-amino-4-fluoro-pyrrolidin-1-yl)-2-pyridyl]piperazin-1-yl]methyl]-6-methyl-morpholin-4-yl]quinoline-8-carbonitrile] was tested. Which IC50 did it give?
Answer: 134 nM

Question: How did the IC50 turn out when `C[C@@H]1CN(c2ccc(C#N)c3ncccc23)C[C@H](CN2CCN(c3cccc(N4CCNCC(O)C4)n3)CC2)O1` (stereo partly drawn) [Example 41, 5-[(2S,6R)-2-[[4-[6-(6-hydroxy-1,4-diazepan-1-yl)-2-pyridyl]piperazin-1-yl]methyl]-6-methyl-morpholin-4-yl]quinoline-8-carbonitrile] was run?
Answer: 150 nM

Question: How did the IC50 turn out when `CO[C@H]1CN(c2cccc(N3CCN(C[C@H]4CN(c5ccc(C#N)c6ncccc56)C[C@@H](C)O4)CC3)n2)C[C@H]1N` [Example 42, 5-[(2S,6R)-2-[[4-[6-[(3R,4S)-3-amino-4-methoxy-pyrrolidin-1-yl]-2-pyridyl]piperazin-1-yl]methyl]-6-methyl-morpholin-4-yl]quinoline-8-carbonitrile] was run?
Answer: 147 nM

Question: Which IC50 does the source give for `COC1CN(c2ccc(N3CCN(C[C@H]4CN(c5ccc(C#N)c6ncccc56)C[C@@H](C)O4)CC3)cn2)CC1N` (stereo partly drawn) [Example 43, 5-[(2S,6R)-2-[[4-[6-(3-amino-4-methoxy-pyrrolidin-1-yl)-3-pyridyl]piperazin-1-yl]methyl]-6-methyl-morpholin-4-yl]quinoline-8-carbonitrile] here?
Answer: 119 nM

Question: How did the IC50 turn out when `C[C@@H]1CN(c2ccc(C#N)c3ncccc23)C[C@H](CN2CCN(c3ccc(N4CC(N)C(F)C4)nc3)CC2)O1` (stereo partly drawn) [Example 44, 5-[(2S,6R)-2-[[4-[6-(3-amino-4-fluoro-pyrrolidin-1-yl)-3-pyridyl]piperazin-1-yl]methyl]-6-methyl-morpholin-4-yl]quinoline-8-carbonitrile] was run?
Answer: 164 nM

Question: For `C[C@@H]1CN(c2ccc(C#N)c3ncccc23)C[C@H](CN2CCN(c3nc(N4CCNCC4)ncc3F)CC2)O1` [Example 45, 5-[(2S,6R)-2-[[4-(5-fluoro-2-piperazin-1-yl-pyrimidin-4-yl)piperazin-1-yl]methyl]-6-methyl-morpholin-4-yl]quinoline-8-carbonitrile], which IC50 is on record?
Answer: 188 nM
